In ChEMBL document CHEMBL1201862, “PubChem BioAssay data set” (2004):
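Each compound was tested at five concentrations against cells in 96-well plates for 48 hours. The concentration for 50% growth inhibition is given as GI50.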 Activity calls are given as the source filed them. Cut-off read from the data, not from the text of the source: active = GI50 up to about 1.1 µM and inactive = higher.

Legend:
Assay in all cases: NCI anticancer screen, dose series, 48 h
NCI-H23 = system: NCI-H23
DU-145 = system: DU-145
OVCAR-4 = system: OVCAR-4
TK-10 = system: TK-10
HL-60 = system: HL-60
NCI-H460 = system: NCI-H460
BT-549 = system: BT-549
HCT-116 = system: HCT-116
MCF7 = system: MCF7
SW-620 = system: SW-620
SF-295 = system: SF-295
SR = system: SR
HOP-92 = system: HOP-92
SK-MEL-2 = system: SK-MEL-2
NCI-H522 = system: NCI-H522
SK-MEL-5 = system: SK-MEL-5
RPMI-8226 = system: RPMI-8226
LOX IMVI = system: LOX IMVI
HOP-62 = system: HOP-62
SF-268 = system: SF-268

## CCc1ccccc1NC(=O)C(C#N)C1=C(Cl)C(=O)c2ccccc2C1=O (stereo not given)
NCI-H23
  GI50: 12.6 µM (inactive)
DU-145
  GI50: 17.4 µM (inactive)
OVCAR-4
  GI50: 13.6 µM (inactive)
TK-10
  GI50: 18.7 µM (inactive)
HL-60
  GI50: 26.2 µM (inactive)
NCI-H460
  GI50: 19.7 µM (inactive)
BT-549
  GI50: 21.9 µM (inactive)
HCT-116
  GI50: 13 µM (inactive)
MCF7
  GI50: 22.8 µM (inactive)
SW-620
  GI50: 18.4 µM (inactive)
SF-295
  GI50: 20.9 µM (inactive)
SR
  GI50: 21.6 µM (inactive)
HOP-92
  GI50: 29.4 µM (inactive)
SK-MEL-2
  GI50: 17.3 µM (inactive)
NCI-H522
  GI50: 13.5 µM (inactive)
SK-MEL-5
  GI50: 15.3 µM (inactive)
RPMI-8226
  GI50: 12.4 µM (inactive)
LOX IMVI
  GI50: 13.2 µM (inactive)
HOP-62
  GI50: 19.1 µM (inactive)
SF-268
  GI50: 21.7 µM (inactive)

## NC1(C(=O)OCc2ccccc2)CCCC1
NCI-H23
  GI50: 17.5 µM (inactive)
DU-145
  GI50: 16.6 µM (inactive)
OVCAR-4
  GI50: 15.1 µM (inactive)
TK-10
  GI50: 82.4 µM (inactive)
HL-60
  GI50: 0.21 µM (active)
NCI-H460
  GI50: 43.3 µM (inactive)
BT-549
  GI50: 17.1 µM (inactive)
HCT-116
  GI50: 18 µM (inactive)
MCF7
  GI50: 25.1 µM (inactive)
SW-620
  GI50: 36.6 µM (inactive)
SF-295
  GI50: 15.9 µM (inactive)
SR
  GI50: 33.5 µM (inactive)
HOP-92
  GI50: 14.4 µM (inactive)
SK-MEL-2
  GI50: 17.9 µM (inactive)
NCI-H522
  GI50: 7.06 µM (inactive)
SK-MEL-5
  GI50: 16.6 µM (inactive)
RPMI-8226
  GI50: 14.2 µM (inactive)
LOX IMVI
  GI50: 18.2 µM (inactive)
HOP-62
  GI50: 18.8 µM (inactive)
SF-268
  GI50: 15.1 µM (inactive)

## CCOC(=O)Nc1nc(-c2ccccc2)c(C)s1
NCI-H23
  GI50: 81.1 µM (inactive)
DU-145
  GI50: 52.6 µM (inactive)
OVCAR-4
  GI50: 81.5 µM (inactive)
TK-10
  GI50: > 100 µM (inactive)
HL-60
  GI50: 11.1 µM (inactive)
NCI-H460
  GI50: 64 µM (inactive)
BT-549
  GI50: 53.8 µM (inactive)
HCT-116
  GI50: 88.7 µM (inactive)
MCF7
  GI50: 56.4 µM (inactive)
SW-620
  GI50: > 100 µM (inactive)
SF-295
  GI50: > 100 µM (inactive)
SR
  GI50: 49.9 µM (inactive)
HOP-92
  GI50: 11.7 µM (inactive)
SK-MEL-2
  GI50: > 100 µM (inactive)
NCI-H522
  GI50: 28 µM (inactive)
SK-MEL-5
  GI50: > 100 µM (inactive)
RPMI-8226
  GI50: > 100 µM (inactive)
LOX IMVI
  GI50: > 100 µM (inactive)
HOP-62
  GI50: > 100 µM (inactive)
SF-268
  GI50: > 100 µM (inactive)

## CC(=O)NC1C(OCc2ccccc2)OC(CO)C(O)C1OCC(=O)N1CCCC1C(=O)NC(CCC(=O)NCCCCCNc1c2ccccc2nc2cccc([N+](=O)[O-])c12)C(N)=O (stereo not given)
NCI-H23
  GI50: 0.0336 µM (active)
DU-145
  GI50: 0.0192 µM (active)
OVCAR-4
  GI50: 0.0982 µM (active)
TK-10
  GI50: 0.0508 µM (active)
HL-60
  GI50: 0.0221 µM (active)
NCI-H460
  GI50: 0.00125 µM (active)
BT-549
  GI50: 0.0524 µM (active)
HCT-116
  GI50: 0.00433 µM (active)
MCF7
  GI50: 0.003 µM (active)
SW-620
  GI50: 0.00399 µM (active)
SF-295
  GI50: 0.048 µM (active)
SR
  GI50: 0.281 µM (active)
HOP-92
  GI50: 0.0252 µM (active)
SK-MEL-2
  GI50: 0.019 µM (active)
NCI-H522
  GI50: 0.0353 µM (active)
SK-MEL-5
  GI50: 0.00853 µM (active)
RPMI-8226
  GI50: 0.00331 µM (active)
LOX IMVI
  GI50: 0.166 µM (active)
HOP-62
  GI50: 0.017 µM (active)
SF-268
  GI50: 0.0201 µM (active)
